Target: T1, EGFR (Homo sapiens, UniProt P00533)
T1 construct: expressed in transfected cells; host or cells: NIH 3T3/C7
Assay: EGF receptor ELISA in cells engineered to express human EGF-R
Type: cell-based
Conditions: 50% inhibition of PTK activity over control
Protocol: The cellular/catalytic assays described herein are performed in an ELISA format. The general procedure is a follows: a compound is introduced to cells expressing the test kinase, either naturally or recombinantly, for some period of time after which, if the test kinase is a receptor, a ligand known to activate the receptor's activity is added. The cells are lysed and the lysate is transferred to the wells of an ELISA plate previously coated with a specific antibody recognizing the substrate of the enzymatic phosphorylation reaction. Non-substrate components of the cell lysate are washed away and the amount of phosphorylation on the substrate is detected with an antibody specifically recognizing phosphotyrosine compared with control cells that were not contacted with a test compound.
EGF Receptor kinase activity in cells genetically engineered to express human EGF-R can be measured as described below:
The following materials and reagents are used
a. EGF Ligand: stock concentration=16.5 μM; EGF 201, TOYOBO, Co., Ltd. Japan.
b. 05-101 (UBI) (a monoclonal antibody recognizing an EGFR extracellular domain).
c. Anti-phosphotyosine antibody (anti-Ptyr) (polyclonal).
d. Detection antibody: Goat anti-rabbit lgG horse radish peroxidase conjugate, TAGO, Inc., Burlingame, Calif.
Keep solution in dark at 4 C until used.
The following protocol is used:
1. Coat ELISA plates (Corning, 96 well, Cat. #25805-96) with 05-101 antibody at 0.5 μg per well in PBS, 150 μL final volume/well, and store overnight at 4° C. Coated plates are good for up to 10 days when stored at 4° C.
2. On day of use, remove coating buffer and replace with blocking buffer (5% Carnation Instant NonFat Dry Milk in PBS). Incubate the plate, shaking, at room temperature (about 23° C. to 25° C.) for 30 minutes. Just prior to use, remove blocking buffer and wash plate 4 times with TBST buffer.
1. NIH 3T3/C7 cell line (Honegger, et al., Cell 51:199-209, 1987) can be use for this assay.
2. Choose dishes having 80-90% confluence for the experiment. Trypsinize cells and stop reaction by adding 10% CS DMEM medium. Suspend cells in DMEM medium (10% CS DMEM medium) and centrifuge once at 1000 rpm at room temperature for 5 minutes.
3. Resuspend cells in seeding medium (DMEM, 0.5% bovine serum), and count the cells using trypan blue. Viability above 90% is acceptable. Seed cells in DMEM medium (0.5% bovine serum) at a density of 10,000 cells per well, 100 μL per well, in a 96 well microtiter plate. Incubate seeded cells in 5% CO2 at 37° C. for about 40 hours.
1. Check seeded cells for contamination using an inverted microscope. Dilute drug stock (10 mg/mL in DMSO) 1:10 in DMEM medium, then transfer 5 μL to a test well for a final drug dilution of 1:200 and a final DMSO concentration of 1%. Control wells receive DMSO alone. Incubate in 5% CO2 at 37° C. for one hour.
2. Prepare EGF ligand: dilute stock EGF in DMEM so that upon transfer of 10 μL dilute EGF (1:12 dilution), 25 nM final concentration is attained.
3. Prepare fresh 10 mL HNTG* sufficient for 100 μL per well wherein HNTG* comprises: HNTG stock (2.0 mL), milli-Q H2O (7.3 mL), EDTA, 100 mM, pH 7.0 (0.5 mL), Na3VO4 0.5 M (0.1 mL) and Na4(P2O7), 0.2 M (0.1 mL).
5. After two hours incubation with drug, add prepared EGF ligand to cells, 10 μL per well, to yield a final concentration of 25 nM. Control wells receive DMEM alone. Incubate, shaking, at room temperature, for 5 minutes.
6. Remove drug, EGF, and DMEM. Wash cells twice with PBS. Transfer HNTG* to cells, 100 μL per well. Place on ice for 5 minutes. Meanwhile, remove blocking buffer from other ELISA plate and wash with TBST as described above.
7. With a pipette tip securely fitted to a micropipettor, scrape cells from plate and homogenize cell material by repeatedly aspirating and dispensing the HNTG* lysis buffer. Transfer lysate to a coated, blocked, and washed ELISA plate. Incubate shaking at room temperature for one hour.
8. Remove lysate and wash 4 times with TBST. […]

T1 sequence (P00533 25-1210): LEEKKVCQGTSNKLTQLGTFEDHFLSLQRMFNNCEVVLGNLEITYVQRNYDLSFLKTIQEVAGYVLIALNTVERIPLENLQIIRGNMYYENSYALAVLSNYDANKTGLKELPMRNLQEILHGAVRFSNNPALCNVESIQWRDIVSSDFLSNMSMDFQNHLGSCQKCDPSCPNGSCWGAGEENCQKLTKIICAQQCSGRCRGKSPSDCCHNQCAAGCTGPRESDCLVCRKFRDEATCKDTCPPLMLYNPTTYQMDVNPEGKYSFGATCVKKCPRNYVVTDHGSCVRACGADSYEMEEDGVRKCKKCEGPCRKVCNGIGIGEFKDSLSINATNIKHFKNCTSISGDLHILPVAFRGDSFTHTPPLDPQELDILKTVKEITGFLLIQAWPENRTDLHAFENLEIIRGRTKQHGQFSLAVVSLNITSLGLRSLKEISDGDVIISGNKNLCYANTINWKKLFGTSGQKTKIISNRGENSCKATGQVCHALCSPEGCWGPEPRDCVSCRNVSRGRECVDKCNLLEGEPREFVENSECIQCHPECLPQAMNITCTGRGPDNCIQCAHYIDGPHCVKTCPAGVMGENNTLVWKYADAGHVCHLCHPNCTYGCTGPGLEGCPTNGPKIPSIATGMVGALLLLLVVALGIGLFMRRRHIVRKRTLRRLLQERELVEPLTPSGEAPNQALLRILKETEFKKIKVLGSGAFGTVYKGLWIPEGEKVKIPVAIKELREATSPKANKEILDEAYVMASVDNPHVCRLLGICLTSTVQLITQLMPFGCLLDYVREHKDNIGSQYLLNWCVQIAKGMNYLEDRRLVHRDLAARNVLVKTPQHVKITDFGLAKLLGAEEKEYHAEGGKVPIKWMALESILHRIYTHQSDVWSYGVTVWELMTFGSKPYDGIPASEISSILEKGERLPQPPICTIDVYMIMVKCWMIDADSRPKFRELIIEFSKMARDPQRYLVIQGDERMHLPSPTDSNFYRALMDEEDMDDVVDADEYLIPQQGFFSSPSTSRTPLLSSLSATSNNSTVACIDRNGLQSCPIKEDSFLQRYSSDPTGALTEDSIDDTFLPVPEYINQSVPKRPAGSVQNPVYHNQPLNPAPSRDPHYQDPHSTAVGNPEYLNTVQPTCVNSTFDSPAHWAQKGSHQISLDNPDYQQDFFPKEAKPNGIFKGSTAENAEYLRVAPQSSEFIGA

SMILES | IC50 [µM]
CCOC(=O)c1c(C)[nH]c(C=C2C(=O)Nc3ccc(NC(=O)c4ccc(C(=O)OC)cc4)cc32)c1C [3-(2,4-dimethyl-3-ethoxycarbonylpyrrol-5-methylidenyl)-5-(4-methoxycarbonylbenzamido)-2-indolinone] | > 10
CCOC(=O)c1c(C)[nH]c(C=C2C(=O)Nc3ccc(Br)cc32)c1C [3-(2,4-dimethyl-3-ethoxycarbonylpyrrol-5-methylidenyl)-5-bromo-2-indolinone] | > 25
CC(=O)c1[nH]c(C=C2C(=O)Nc3ccccc32)c(C)c1C [3-(2-acetyl-3,4-dimethylpyrrol-5-methylidenyl)-2-indolinone] | > 100
COC(=O)Cc1c(Cl)[nH]c(C=C2C(=O)Nc3ccccc32)c1C(=O)OC [3-(2-chloro-4-methoxycarbonyl-3-methoxycarbonylmethylpyrrol-5-methylidenyl)-2-indolinone] | > 50
CCOC(=O)c1[nH]c(C=C2C(=O)Nc3ccccc32)c(C(C)=O)c1C [3-(4-acetyl-2-ethoxycarbonyl-3-methylpyrrol-5-methylidenyl)-2-indolinone] | > 10
CCOC(=O)c1c[nH]c(C=C2C(=O)Nc3ccccc32)c1C [3-(4-ethoxycarbonyl-3-methylpyrrol-2-methylidenyl)-2-indolinone] | > 100
CCOC(=O)CCc1c(C(=O)OCC)[nH]c(C=C2C(=O)Nc3ccccc32)c1CC(=O)OCC [3-[2-ethoxycarbonyl-3-(2-ethoxycarbonylethyl)-4-ethoxycarbonylmethyl)pyrrol-5-methylidenyl)-2-indolinone] | > 10
Cc1c[nH]c(C=C2C(=O)Nc3ccccc32)c1CCC(=O)O [3-[3-(2-carboxyethyl-4-methylpyrrol-2-methylidenyl]-2-indolinone] | > 100
COC(=O)CCc1c[nH]c(C=C2C(=O)Nc3cc(OC)c(OC)cc32)c1C [3-[4-(2-methoxycarbonylethyl)-3-methylpyrrol-2-methylidenyl]-5,6-dimethoxy-2-indolinone] | > 50
COC(=O)CCc1c[nH]c(C=C2C(=O)Nc3ccccc32)c1C [3-[4-(2-methoxycarbonylethyl-3-methylpyrrol-2-methylidenyl]-2-indolinone] | > 100

Reference: patent publication US6486185B1, “3-heteroarylidene-2-indolinone protein kinase inhibitors” (Sugen, Inc., priority 1997, dated 2002)
